Results: PubChem BioAssay AID1963439 (Molecular Pharmacology Branch, DTP, NCI, 2024)
pIC50: −log10 of the molar value.

Tested on: NCI-H196 complex spheroids with HUVEC/MSC, growth % T/C
Assay: Anticancer human tumor NCI-H196 cell line growth inhibition [Asc];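 further: spheroids exposed to compound for 7 days before measurement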;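 on viability, T/C: 100% = DMSO vehicle control wells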
Settings: for pIC50: curve of first compound; for viability, T/C: stronger effect = lower value
Outline: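 Complex spheroids combining tumor cells with HUVEC endothelial cells and human MSCs, at 37 degrees C, 5% CO2; agents tested alone or combined, half-log dilutions from at or near clinical Cmax, or 10 microM if Cmax unknown.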

[1] = second compound 0.01 µM, first compound 0.0316 µM
[2] = second compound 0.01 µM, first compound 0.1 µM
[3] = second compound 0.01 µM, first compound 0.316 µM
[4] = second compound 0.01 µM, first compound 1 µM
[5] = second compound 0.0316 µM, first compound 0.0316 µM
[6] = second compound 0.0316 µM, first compound 0.1 µM
[7] = second compound 0.0316 µM, first compound 0.316 µM
[8] = second compound 0.0316 µM, first compound 1 µM
[9] = second compound 0.1 µM, first compound 0.0316 µM
[10] = second compound 0.1 µM, first compound 0.1 µM
[11] = second compound 0.1 µM, first compound 0.316 µM
[12] = second compound 0.1 µM, first compound 1 µM
[13] = second compound 0.316 µM, first compound 0.0316 µM
[14] = second compound 0.316 µM, first compound 0.1 µM
[15] = second compound 0.316 µM, first compound 0.316 µM
[16] = second compound 0.316 µM, first compound 1 µM
[17] = second compound 1 µM, first compound 0.0316 µM
[18] = second compound 1 µM, first compound 0.1 µM
[19] = second compound 1 µM, first compound 0.316 µM
[20] = second compound 1 µM, first compound 1 µM

C=CC(=O)N1CCN(c2nc(=O)n(-c3c(C)ccnc3C(C)C)c3nc(-c4c(O)cccc4F)c(F)cc23)C(C)C1 (stereo not given) + CNC(C)C(=O)NC1CN(S(=O)(=O)c2cccc(S(=O)(=O)N3CCC4CCC(C(=O)NC(c5ccccc5)c5ccccc5)N4C(=O)C(NC(=O)C(C)NC)C3)c2)CCC2CCC(C(=O)NC(c3ccccc3)c3ccccc3)N2C1=O
pIC50 (second compound 0.01 µM): > 7.50
pIC50 (second compound 0.0316 µM): > 7.50
pIC50 (second compound 0.1 µM): > 7.50
pIC50 (second compound 0.316 µM): > 7.50
pIC50 (second compound 1 µM): > 7.50
viability, T/C [1]: 8.2%
viability, T/C [2]: 7.68%
viability, T/C [3]: 5.38%
viability, T/C [4]: 6.44%
viability, T/C (second compound 0.01 µM, first compound 3.16 µM): 8.71%
viability, T/C (second compound 0.01 µM, first compound 10 µM): 9.87%
viability, T/C [5]: 3.84%
viability, T/C [6]: 5.12%
viability, T/C [7]: 5.38%
viability, T/C [8]: 8.69%
viability, T/C (second compound 0.0316 µM, first compound 3.16 µM): 6.93%
viability, T/C (second compound 0.0316 µM, first compound 10 µM): 7.56%
viability, T/C [9]: 3.27%
viability, T/C [10]: 3.83%
viability, T/C [11]: 3.69%
viability, T/C [12]: 4.2%
viability, T/C (second compound 0.1 µM, first compound 3.16 µM): 7.47%
viability, T/C (second compound 0.1 µM, first compound 10 µM): 9.85%
viability, T/C [13]: 3.58%
viability, T/C [14]: 3.64%
viability, T/C [15]: 6.15%
viability, T/C [16]: 3.67%
viability, T/C (second compound 0.316 µM, first compound 3.16 µM): 4.47%
viability, T/C (second compound 0.316 µM, first compound 10 µM): 6.52%
viability, T/C [17]: 3.22%
viability, T/C [18]: 3.89%
viability, T/C [19]: 3.25%
viability, T/C [20]: 3.51%
viability, T/C (second compound 1 µM, first compound 3.16 µM): 5.33%
viability, T/C (second compound 1 µM, first compound 10 µM): 9.94%

CCN1C(C(=O)NC23CCC(C(=O)O)(CC2)CC3)C(c2cccc(Cl)c2F)C2(C(=O)Nc3cc(Cl)ccc32)C12CCCCC2 (stereo not given) + CNC(C)C(=O)NC1CN(S(=O)(=O)c2cccc(S(=O)(=O)N3CCC4CCC(C(=O)NC(c5ccccc5)c5ccccc5)N4C(=O)C(NC(=O)C(C)NC)C3)c2)CCC2CCC(C(=O)NC(c3ccccc3)c3ccccc3)N2C1=O
pIC50 (second compound 0.01 µM): > 8.02
pIC50 (second compound 0.0316 µM): > 8.02
pIC50 (second compound 0.1 µM): > 8.02
pIC50 (second compound 0.316 µM): > 8.02
pIC50 (second compound 1 µM): > 8.02
viability, T/C (second compound 0.01 µM, first compound 0.00949 µM): 6.77%
viability, T/C (second compound 0.01 µM, first compound 0.03 µM): 8.8%
viability, T/C (second compound 0.01 µM, first compound 0.0949 µM): 6.77%
viability, T/C (second compound 0.01 µM, first compound 0.3 µM): 4.95%
viability, T/C (second compound 0.01 µM, first compound 0.949 µM): 4.31%
viability, T/C (second compound 0.01 µM, first compound 3 µM): 2.99%
viability, T/C (second compound 0.0316 µM, first compound 0.00949 µM): 4.48%
viability, T/C (second compound 0.0316 µM, first compound 0.03 µM): 6.6%
viability, T/C (second compound 0.0316 µM, first compound 0.0949 µM): 5.08%
viability, T/C (second compound 0.0316 µM, first compound 0.3 µM): 5.41%
viability, T/C (second compound 0.0316 µM, first compound 0.949 µM): 2.77%
viability, T/C (second compound 0.0316 µM, first compound 3 µM): 1.77%
viability, T/C (second compound 0.1 µM, first compound 0.00949 µM): 3.71%
viability, T/C (second compound 0.1 µM, first compound 0.03 µM): 4.01%
viability, T/C (second compound 0.1 µM, first compound 0.0949 µM): 3.17%
viability, T/C (second compound 0.1 µM, first compound 0.3 µM): 3.11%
viability, T/C (second compound 0.1 µM, first compound 0.949 µM): 1.37%
viability, T/C (second compound 0.1 µM, first compound 3 µM): 2.04%
viability, T/C (second compound 0.316 µM, first compound 0.00949 µM): 2.48%
viability, T/C (second compound 0.316 µM, first compound 0.03 µM): 4.45%
viability, T/C (second compound 0.316 µM, first compound 0.0949 µM): 3.05%
viability, T/C (second compound 0.316 µM, first compound 0.3 µM): 1.97%
viability, T/C (second compound 0.316 µM, first compound 0.949 µM): 0.96%
viability, T/C (second compound 0.316 µM, first compound 3 µM): 1.45%
viability, T/C (second compound 1 µM, first compound 0.00949 µM): 2.97%
viability, T/C (second compound 1 µM, first compound 0.03 µM): 4.34%
viability, T/C (second compound 1 µM, first compound 0.0949 µM): 2.12%
viability, T/C (second compound 1 µM, first compound 0.3 µM): 1.73%
viability, T/C (second compound 1 µM, first compound 0.949 µM): 1.39%
viability, T/C (second compound 1 µM, first compound 3 µM): 1.39%

COc1c(OCCCN2CCOCC2)ccc2c3n(c(=NC(=O)c4cnc(N)nc4)nc12)CCN3 + CNC(C)C(=O)NC1CN(S(=O)(=O)c2cccc(S(=O)(=O)N3CCC4CCC(C(=O)NC(c5ccccc5)c5ccccc5)N4C(=O)C(NC(=O)C(C)NC)C3)c2)CCC2CCC(C(=O)NC(c3ccccc3)c3ccccc3)N2C1=O
pIC50 (second compound 0.01 µM): > 8.50
pIC50 (second compound 0.0316 µM): > 8.50
pIC50 (second compound 0.1 µM): > 8.50
pIC50 (second compound 0.316 µM): > 8.50
pIC50 (second compound 1 µM): > 8.50
viability, T/C (second compound 0.01 µM, first compound 0.00316 µM): 5.54%
viability, T/C (second compound 0.01 µM, first compound 0.01 µM): 4.98%
viability, T/C [1]: 5.78%
viability, T/C [2]: 6.94%
viability, T/C [3]: 10.4%
viability, T/C [4]: 12.5%
viability, T/C (second compound 0.0316 µM, first compound 0.00316 µM): 4.98%
viability, T/C (second compound 0.0316 µM, first compound 0.01 µM): 5.47%
viability, T/C [5]: 4.38%
viability, T/C [6]: 4.6%
viability, T/C [7]: 5.64%
viability, T/C [8]: 9.69%
viability, T/C (second compound 0.1 µM, first compound 0.00316 µM): 2.54%
viability, T/C (second compound 0.1 µM, first compound 0.01 µM): 3.24%
viability, T/C [9]: 3.31%
viability, T/C [10]: 2.53%
viability, T/C [11]: 5.11%
viability, T/C [12]: 4.24%
viability, T/C (second compound 0.316 µM, first compound 0.00316 µM): 3.55%
viability, T/C (second compound 0.316 µM, first compound 0.01 µM): 2.22%
viability, T/C [13]: 1.86%
viability, T/C [14]: 3.02%
viability, T/C [15]: 3.25%
viability, T/C [16]: 3.07%
viability, T/C (second compound 1 µM, first compound 0.00316 µM): 2.39%
viability, T/C (second compound 1 µM, first compound 0.01 µM): 2.16%
viability, T/C [17]: 2.41%
viability, T/C [18]: 2.12%
viability, T/C [19]: 1.61%
viability, T/C [20]: 2.15%
